Our source for the clearance and solubility values is ChEMBL document CHEMBL1208730, “Heteroaryl-linked 5-(1H-benzimidazol-1-yl)-2-thiophenecarboxamides: potent inhibitors of polo-like kinase 1 (PLK1) with improved drug-like properties” (Bioorg Med Chem Lett, 2010).

Values after ≈ are worked out from the molar mass of the structure shown.

A short description of data set [1]: Clearance in iv dosed mouse. It counts as ADME, organism-based. The following applies: in vivo.
A short description of data set [2]: Solubility of the compound in 20% SBE beta-cyclodextrin at pH 6. It counts as physicochemical.

Regarding `C[C@@H](Oc1cc(-n2cnc3cc(-c4ccnc(NC5CCN(C)CC5)c4)ccc32)sc1C(N)=O)c1ccccc1Cl`, in data set [1], the clearance (usually the rate of elimination divided by the concentration) was 48 mL/min/kg. Further, the solubility (as a rule, how much of the substance goes into solution per volume) in data set [2] turned out to be 1050 µg/mL (≈ 1790 µM).
For `C[C@@H](Oc1cc(-n2cnc3cc(-c4ccnc(N)n4)ccc32)sc1C(N)=O)c1ccccc1C(F)(F)F`, in that order: 70 mL/min/kg and 200 µg/mL (≈ 381 µM).
In the case of `C[C@@H](Oc1cc(-n2cnc3cc(-c4ccnc(NCCS(C)(=O)=O)c4)ccc32)sc1C(N)=O)c1ccccc1Cl`, in data set [2], the solubility came to 30 µg/mL (≈ 50.3 µM).
In turn, `C[C@@H](Oc1cc(-n2cnc3cc(-c4ccnc(N5CCN(C)CC5)c4)ccc32)sc1C(N)=O)c1ccccc1Cl` came in with a clearance in data set [1] of 52 mL/min/kg. The amount in solution in data set [2] (solubility) came to 500 µg/mL (≈ 872 µM).
For `C[C@@H](Oc1cc(-n2cnc3cc(-c4ccnc(N5CCN(C)CC5)c4)ccc32)sc1C(N)=O)c1ccccc1C(F)(F)F`, in that order: 32 mL/min/kg and 870 µg/mL (≈ 1430 µM).
In the case of `C[C@@H](Oc1cc(-n2cnc3cc(-c4ccnc(N5CCNCC5)c4)ccc32)sc1C(N)=O)c1ccccc1Cl`, the clearance in data set [1] was found to be 58 mL/min/kg.
`C[C@@H](Oc1cc(-n2cnc3cc(-c4ccnc(N)c4)ccc32)sc1C(N)=O)c1ccccc1C(F)(F)F` returned a clearance in data set [1] of 38 mL/min/kg. The compound further displayed a solubility in data set [2] of 1000 µg/mL (≈ 1910 µM).
The like results for `C[C@@H](Oc1cc(-n2cnc3cc(-c4cnn(CCN5CCOCC5)c4)ccc32)sc1C(N)=O)c1ccccc1Cl` were, in that order, 82 mL/min/kg and 530 µg/mL (≈ 918 µM).
The like results for `C[C@@H](Oc1cc(-n2cnc3cc(-c4ccc(NC5CCN(C)CC5)nc4)ccc32)sc1C(N)=O)c1ccccc1Cl` were, in that order, 19 mL/min/kg and 2930 µg/mL (≈ 4990 µM).
In data set [1], `C[C@@H](Oc1cc(-n2cnc3cc(-c4cnn(CCN5CCN(C)CC5)c4)ccc32)sc1C(N)=O)c1ccccc1Cl` displayed a clearance of 54 mL/min/kg. In addition, the concentration in solution in data set [2] (solubility) came to 4550 µg/mL (≈ 7710 µM).
For `CCN1CCN(CCCn2cc(-c3ccc4c(c3)ncn4-c3cc(O[C@H](C)c4ccccc4Cl)c(C(N)=O)s3)cn2)CC1`, in that order: 44 mL/min/kg and 3120 µg/mL (≈ 5050 µM).
The like results for `C[C@@H](Oc1cc(-n2cnc3cc(-c4cnn(CCCN(C)C)c4)ccc32)sc1C(N)=O)c1ccccc1Cl` were, in that order, 44 mL/min/kg and 5830 µg/mL (≈ 10600 µM).
For `C[C@@H](Oc1cc(-n2cnc3cc(-c4ccncc4)ccc32)sc1C(N)=O)c1ccccc1Cl`, in that order: 70 mL/min/kg and 3 µg/mL (≈ 6.32 µM).
With `C[C@@H](Oc1cc(-n2cnc3cc(-c4cnn(C)c4)ccc32)sc1C(N)=O)c1ccccc1Cl`, the clearance in data set [1] stood at 15 mL/min/kg. In addition, the solubility in data set [2] was 100 µg/mL (≈ 209 µM).
The like results for `C[C@@H](Oc1cc(-n2cnc3cc(-c4ccnc(NCCO)c4)ccc32)sc1C(N)=O)c1ccccc1Cl` were, in that order, 109 mL/min/kg and 300 µg/mL (≈ 562 µM).
For `C[C@@H](Oc1cc(-n2cnc3cc(-c4ccnc(NCCN(C)C)c4)ccc32)sc1C(N)=O)c1ccccc1C(F)(F)F`, in that order: 62 mL/min/kg and 3230 µg/mL (≈ 5430 µM).
